Source: US11071730B2, “Substituted 6-azabenzimidazole compounds” (Gilead Sciences, Inc., priority 2018, dated 2021)

biological target: human HPK1 (MAP4K1) (Homo sapiens (Human), UniProt Q92918); assay: HPK1 IC50 Assay (TR-FRET biochemical kinase assay, STK S1 peptide substrate); conditions: recombinant human HPK1 kinase domain 0.15 nM, 10 μM ATP, 1 μM STK S1 peptide; geometric mean
Protocol: The enzymatic activity of human HPK1 (MAP4K1) was monitored in a biochemical assay in the presence or absence of compounds and using a synthetic peptide substrate. An increase in phosphorylation of the peptide by HPK1 was indicative of its kinase activity.
Recombinant HPK1 kinase domain produced via baculovirus infection of insect cells was obtained from Proteros (Proteros Biostructures #PR-0322) and was pre-activated in the presence of 2 mM ATP (Sigma-Aldrich, cat #GE27-2056-01) and 2 mM magnesium chloride for 16 hours at 4° C. The protein reaction mixture was then loaded to a desalting column (Thermo Fisher Scientific, Cat #89889) to remove excess ATP. HPK1 was eluted with buffer containing 20 mM Tris (2-Amino-2-(hydroxymethyl)propane-1,3-diol) pH 8.0, 150 mM NaCl, 2 mM dithiothreitol and 5% glycerol, and was frozen at −80° C. for later use.
Ten nanoliters of test compounds dissolved in DMSO at various concentrations were dispensed into a 384-well ProxiPlate (PerkinElmer #6008289). Five microliters of a solution of recombinant HPK1 diluted in HPK1 kinase assay buffer (50 mM BES [N,N-Bis(2-hydroxyethyl)-2-aminoethanesulfonic acid], pH 7.0; 10 mM magnesium chloride; 0.01% Triton X-100; 1 mM dithiothreitol; 0.01% bovine serum albumin; 0.1 mM sodium orthovanadate) was added to the compound-containing plate and was incubated for 15 minutes at 25° C. Five microliters of a mixture of ATP (Sigma-Aldrich #A6559) and peptide substrate STK S1 (Cisbio #61ST1BLC) diluted in HPK1 kinase assay buffer was then added to start the reaction. Final concentrations were 0.15 nM for HPK1, 10 μM for ATP, and 1 μM for the STK S1 peptide substrate. The reaction mixture was incubated at 25° C. for 3 hours and was stopped with the addition of 10 μl of an EDTA (Ethylenediaminetetraacetic acid)-containing detection buffer (Cisbio #62SDBRDF) supplemented with Europium cryptate-labeled anti-phospho-serine/threonine antibodies (Cisbio #62ST1PEJ) and XL665-labeled streptavidin (Cisbio #610SAXLG). The mixture was incubated for 16 hours at room temperature and peptide phosphorylation was measured by time-resolved fluorescence energy transfer (665 nm/620 nm) on an Envision plate reader (PerkinElmer).
Data in Table 1 were normalized based on positive (staurosporine) and negative (DMSO) controls. Least squares curve fittings were performed using a four-parameter variable slope nonlinear regression model. IC50 is defined as the concentration of compound required to inhibit 50% of maximum phosphorylation. IC50 values from multiple experiments were averaged by geometric mean and the standard deviation was calculated.

human HPK1 (MAP4K1), sequence (Q92918 17-274): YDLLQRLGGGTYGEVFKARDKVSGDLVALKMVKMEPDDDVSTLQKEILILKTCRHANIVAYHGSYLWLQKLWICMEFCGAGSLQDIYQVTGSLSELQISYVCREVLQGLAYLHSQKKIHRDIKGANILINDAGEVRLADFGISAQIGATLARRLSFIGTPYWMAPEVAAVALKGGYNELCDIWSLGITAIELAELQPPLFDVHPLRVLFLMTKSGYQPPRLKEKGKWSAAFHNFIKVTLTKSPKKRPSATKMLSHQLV

Point of comparison: `CC(C)n1cnc2cc(-c3ccc4c(c3)N([C@H]3C[C@@H](N5CC(C)(C)C5)C3)C(=O)C4(C)C)nc(Nc3cc(CO)ncc3F)c21` [Example 100], IC50 3.1 nM. Against it:
- CC(C)n1cnc2cc(-c3ccc4c(c3)N([C@H]3C[C@@H](N5CCCCC5)C3)C(=O)C43CCN(C(=O)C(C)(C)CF)CC3)nc(Nc3ccncc3F)c21 [Example 139] — 6.2-fold lower, 0.5 nM
- CC(C)n1cnc2cc(-c3ccc4c(c3)N([C@H]3C[C@@H](N5CCCCC5)C3)C(=O)C43CCN(C(=O)C4COC4)CC3)nc(Nc3ccncc3F)c21 [Example 144] — 10-fold lower, 0.3 nM
- CO[C@H]1C[C@@H](C(=O)N2CCC3(CC2)C(=O)N([C@H]2C[C@@H](N4CCCCC4)C2)c2cc(-c4cc5ncn(C(C)C)c5c(Nc5ccncc5F)n4)ccc23)C1 [Example 136, 6-(4-((3-fluoropyridin-4-yl)amino)-3-isopropyl-3H-imidazo[4,5-c]pyridin-6-yl)-1′-((1s,3 S)-3-methoxycyclobutane-1-carbonyl)-1-((1s,3 S)-3-(piperidin-1-yl)cyclobutyl)spiro[indoline-3,4′-piperidin]-2-one] — 6.2-fold lower, 0.5 nM
- CC(C)n1cnc2cc(-c3ccc4c(c3)N([C@H]3C[C@@H](N5CCC(C)(C)C5)C3)C(=O)C43CCN(C(=O)c4nccs4)CC3)nc(Nc3ccncc3F)c21 [Example 162] — 31-fold lower, 0.1 nM
- Cc1cc(Nc2nc(-c3ccc4c(c3)N([C@H]3C[C@@H](N5CCC(C)(C)C5)C3)C(=O)C43CCN(C(=O)C4CCO4)CC3)cc3ncn(C(C)C)c23)c(F)cn1 (stereo partly shown) [Example 133] — 16-fold lower, 0.2 nM
- CC(C)n1cnc2cc(-c3ccc4c(c3)N([C@H]3C[C@@H](N5CC6CCC(C6)C5)C3)C(=O)C43CCN(C(=O)C4CCO4)CC3)nc(Nc3ccncc3F)c21 (stereo partly shown) [Example 125] — 78-fold lower, 0.04 nM
- CC(=O)N1CCC2(CC1)C(=O)N([C@H]1C[C@@H](N3CCCC4(CCC4)C3)C1)c1cc(-c3cc4ncn(C(C)C)c4c(Nc4ccncc4F)n3)ccc12 [Example 182] — 10-fold lower, 0.3 nM
- COC(C)(C)C(=O)N1CCC2(CC1)C(=O)N([C@H]1C[C@@H](N3CCCCC3)C1)c1cc(-c3cc4ncn(C(C)C)c4c(Nc4ccncc4F)n3)ccc12 [Example 145] — 7.8-fold lower, 0.4 nM
- CC(C)n1cnc2cc(-c3ccc4c(c3)N([C@H]3C[C@@H](N5CCCC6(CC6)C5)C3)C(=O)C43CCN(C(=O)CO)CC3)nc(Nc3ccncc3F)c21 [Example 121] — 16-fold lower, 0.2 nM
- CC(=O)N1CCC2(CC1)C(=O)N([C@H]1C[C@@H](N3CCCCC3)C1)c1cc(-c3cc4ncn(C(C)C)c4c(Nc4cc5ccncc5cc4F)n3)ccc12 [Example 105, 1′-acetyl-6-(4-((7-fluoroisoquinolin-6-yl)amino)-3-isopropyl-3H-imidazo[4,5-c]pyridin-6-yl)-1-((1s,3s)-3-(piperidin-1-yl)cyclobutyl)spiro[indoline-3,4′-piperidin]-2-one] — 7.8-fold lower, 0.4 nM
- CC(C)n1cnc2cc(-c3ccc4c(c3)N([C@H]3C[C@@H](N5CCC(C)(C)C5)C3)C(=O)C43CCN(C(=O)C4(C)COC4)CC3)nc(Nc3cc(Cl)ncc3F)c21 [Example 130] — 3.1-fold lower, 1 nM
- COC(C)(C)CN(C)[C@H]1C[C@@H](N2C(=O)C3(CCN(C(C)=O)CC3)c3ccc(-c4cc5ncn(C(C)C)c5c(Nc5ccncc5F)n4)cc32)C1 [Example 179] — within 1.5-fold, 4.5 nM
- CC(C)n1cnc2cc(-c3ccc4c(c3)N([C@H]3C[C@@H](N5C[C@H]6CC[C@H]6C5)C3)C(=O)C43CCN(C(=O)[C@@H](C)O)CC3)nc(Nc3ccncc3F)c21 [Example 113] — 44-fold lower, 0.07 nM
- Cc1cc(Nc2nc(-c3ccc4c(c3)N([C@H]3C[C@@H](N5CCCCC5)C3)C(=O)C43CCN(C(=O)C(C)(C)CO)CC3)cc3ncn(C(C)C)c23)c(F)cn1 [Example 132] — 3.9-fold lower, 0.8 nM
- CC(C)[C@@H](O)C(=O)N1CCC2(CC1)C(=O)N([C@H]1C[C@@H](N3CCC(C)(C)C3)C1)c1cc(-c3cc4ncn(C(C)C)c4c(Nc4ccncc4F)n3)ccc12 [Example 118] — 16-fold lower, 0.2 nM
- CC(=O)N1CCC2(CC1)C(=O)N([C@H]1C[C@@H](N3CCCCCC3)C1)c1cc(-c3cc4ncn(C(C)C)c4c(Nc4ccncc4F)n3)ccc12 [Example 185] — 31-fold lower, 0.1 nM
- Cc1cnc(Nc2nc(-c3ccc4c(c3)N([C@H]3C[C@@H](N5CCCCC5)C3)C(=O)C4(C)C)cc3ncn(C(C)C)c23)cc1C(=O)NC1(CF)CC1 [Example 195] — 1.9-fold higher, 6 nM

same assay, conditions: recombinant human HPK1 kinase domain 0.15 nM, 10 μM ATP, 1 μM STK S1 peptide; geometric mean of multiple experiments

Point of comparison: `CCn1cnc2cc(-c3ccc4c(c3)N([C@H]3C[C@@H](N5CC(C)(C)C5)C3)C(=O)C4(C)C)nc(Nc3ccncc3F)c21` [Example 85], IC50 2.5 nM. Against it:
- CC(C)n1cnc2cc(-c3ccc4c(c3)N([C@H]3C[C@@H](N5CCCCC5)C3)C(=O)C4(C)C)nc(Nc3c(F)cncc3F)c21 [Example 65] — 3.6-fold lower, 0.7 nM
- CC(C)n1cnc2cc(-c3ccc4c(c3)N([C@H]3C[C@@H](N5CCCC6(CC6)C5)C3)C(=O)C43CCN(C(=O)[C@@H](C)O)CC3)nc(Nc3ccncc3F)c21 [Example 36] — 8.3-fold lower, 0.3 nM
- CC(C)n1cnc2cc(-c3ccc4c(c3)N([C@H]3C[C@@H](N5CCC(C)(C)C5)C3)C(=O)C43CCN(C(=O)[C@@H]4CCOC4)CC3)nc(Nc3ccncc3F)c21 [Example 17] — 8.3-fold lower, 0.3 nM
- CC(C)n1cnc2cc(-c3ccc4c(c3)N([C@H]3C[C@@H](N5C[C@@H](C)[C@@H](C)C5)C3)C(=O)C43CCN(C(=O)C4(C)COC4)CC3)nc(Nc3ccncc3F)c21 [Example 8] — 12-fold lower, 0.2 nM
- CC(C)n1cnc2cc(-c3ccc4c(c3)N([C@H]3C[C@@H](N5CCCCC5)C3)C(=O)C43CCN(C(=O)C45CC(F)(C4)C5)CC3)nc(Nc3ccncc3F)c21 [Example 28] — 25-fold lower, 0.1 nM
- CC(C)n1cnc2cc(-c3ccc4c(c3)N([C@H]3C[C@@H](N5CCCCC5)C3)C(=O)C43CCN(C(=O)C4(C)CCOCC4)CC3)nc(Nc3ccncc3F)c21 [Example 1, 6-(4-((3-fluoropyridin-4-yl)amino)-3-isopropyl-3H-imidazo[4,5-c]pyridin-6-yl)-1′-(4-methyltetrahydro-2H-pyran-4-carbonyl)-1-((1s,3s)-3-(piperidin-1-yl)cyclobutyl)spiro[indoline-3,4′-piperidin]-2-one] — 4.2-fold lower, 0.6 nM
- CC(C)n1cnc2cc(-c3ccc4c(c3)N([C@H]3C[C@@H](N5CCCCC5)C3)C(=O)C43CCN(C(=O)C4(C)CC4)CC3)nc(Nc3ccncc3F)c21 [Example 27] — 5-fold lower, 0.5 nM
- CC(C)n1cnc2cc(-c3ccc4c(c3)N([C@H]3C[C@@H](N5CC6CC6C5)C3)C(=O)C4(C)C)nc(Nc3ccncc3F)c21 (stereo partly shown) [Example 61] — 3.1-fold lower, 0.8 nM
- CC(C)n1cnc2cc(-c3ccc4c(c3)N([C@H]3C[C@@H](N5CCCCC5)C3)C(=O)C4(C)O)nc(Nc3ccncc3F)c21 (stereo partly shown) [Example 55, 6-(4-((3-fluoropyridin-4-yl)amino)-3-isopropyl-3H-imidazo[4,5-c]pyridin-6-yl)-3-hydroxy-3-methyl-1-((1s,3s)-3-(piperidin-1-yl)cyclobutyl)indolin-2-one] — 2.8-fold lower, 0.9 nM
- CC[C@H](C)n1cnc2cc(-c3ccc4c(c3)N([C@H]3C[C@@H](N5CCCCC5)C3)C(=O)C43CCN(C4COC4)CC3)nc(Nc3ccncc3F)c21 [Example 89] — 5-fold lower, 0.5 nM
- COc1cc(F)c(Nc2nc(-c3ccc4c(c3)N([C@H]3C[C@@H](N5CCCCC5)C3)C(=O)C43CCN(C(C)=O)CC3)cc3ncn(C(C)C)c23)cn1 [Example 97] — 12-fold lower, 0.2 nM
- CC(C)n1cnc2cc(-c3ccc4c(c3)N([C@H]3C[C@@H](N5CCC(C)(C)C5)C3)C(=O)C43CCN(C(=O)C4CCOCC4)CC3)nc(Nc3ccncc3F)c21 [Example 23] — 12-fold lower, 0.2 nM
- CC(C)n1cnc2cc(-c3cnc4c(c3)N([C@H]3C[C@@H](N5CCCCC5)C3)C(=O)C4(C)C)nc(Nc3ccncc3F)c21 [Example 51] — 5.3-fold higher, 13.2 nM
- CC(C)n1cnc2cc(-c3ccc4c(c3)N([C@H]3C[C@@H](N5CCCCC5)C3)C(=O)C43CCN(C(=O)C(C)(C)O)CC3)nc(Nc3ccncc3F)c21 [Example 3] — 4.2-fold lower, 0.6 nM
- CC(C)n1cnc2cc(-c3ccc4c(c3)N([C@H]3C[C@@H](N5CCC(C)(C)C5)C3)C(=O)C43CCN(C4COC4)CC3)nc(Nc3ccncc3F)c21 [Example 75] — 6.2-fold lower, 0.4 nM
- CC(C)n1cnc2cc(-c3ccc4c(c3)N([C@H]3C[C@@H](N5CCC6(CC6)C5)C3)C(=O)C43CCN(C(=O)C4(C)COC4)CC3)nc(Nc3ccncc3F)c21 [Example 5] — 5-fold lower, 0.5 nM
- CC(C)n1cnc2cc(-c3ccc4c(c3)N([C@H]3C[C@@H](N5CC6CC(C6)C5)C3)C(=O)C43CCN(C(=O)C4(C)COC4)CC3)nc(Nc3ccncc3F)c21 [Example 7] — 12-fold lower, 0.2 nM
- CC(C)n1cnc2cc(-c3ccc4c(c3)N([C@H]3C[C@@H](N5CC6CCC5CC6)C3)C(=O)C4(C)C)nc(Nc3ccncc3F)c21 [Example 58] — 3.6-fold lower, 0.7 nM
